Source: paper PMC6902879 (Journal of medicinal chemistry, 2019)

What was measured:
Water solubility = format: physicochemical; details: in words only
E. coli (K-12) = assay: Antibacterial activity; format: cell-based; details: minimum inhibitory concentration, wild type E. coli (K-12)
[1] = Serum stability in human serum; details: human serum (from human male AB plasma), 200 μM, 37 °C, LC-MS
HS-5 cells = details: 24 h; CL, CLsu and conjugates 20 μM; Cipro, TMP, TEL 0.5 μM
[2] = E. coli (K-12) lysate 0.1 U/mL, compound 200 μM, lysate activities normalized
[3] = system: ydgR, fepA, ompF deletion mutants of E. coli; format: cell-based; details: compared with wild-type E. coli
[4] = system: esterase (bioH, yjfP, frsA, ybfF, yfbB, ypfH, yeiG or yqiA) deletion mutants of E. coli; assay: Antibacterial activity against esterase deletion mutants of E. coli; format: cell-based; details: eight single esterase gene deletion mutants
[5] = Static light scattering before and after addition of PLE; format: physicochemical; details: compound 200 μM, [PLE] = 1 U/mL, 24 h
E. coli = assay: Antibacterial activity before and after treatment with porcine liver esterase; format: cell-based; details: [PLE] = 1 U/mL

SMILES	MIC (E. coli (K-12))	apparent first-order rate constant of hydrolysis [2]	effect of deletion of ydgR, fepA or ompF on bacterial viability under treatment [3]	reduction of antibacterial activity by deletion of a cytoplasmic esterase [4]	intensity of static light scattering signal after addition of PLE [5]	change of inhibitory efficacy on addition of exogenous PLE (E. coli)	also measured
O=C(O)CCC(=O)OC[C@@H](NC(=O)C(Cl)Cl)[C@H](O)c1ccc([N+](=O)[O-])cc1 [CLsu, chloramphenicol succinate, reference compound]							conversion to CL after 24 h ([1]; 24 h): less than 15%; cytotoxicity against HS-5 cells (HS-5 cells): lower cytotoxicity than CL
NCCCC[C@H](NC(=O)[C@H](CCCCN)NC(=O)CCC(=O)OC[C@@H](NC(=O)C(Cl)Cl)[C@H](O)c1ccc([N+](=O)[O-])cc1)C(=O)O [Compound 2c]		0.310 h⁻¹	hardly rescues the bacteria	about 20%	increase drastically	hardly changes the inhibitory efficacy	
O=C(CCC(=O)OC[C@@H](NC(=O)C(Cl)Cl)[C@H](O)c1ccc([N+](=O)[O-])cc1)NCC(=O)N[C@H](CO)C(=O)O [Compound 1c]		3.763 h⁻¹	hardly rescues the bacteria	about 20%	increase drastically	hardly changes the inhibitory efficacy	time to complete hydrolysis [1]: ≤ 2 h
CC[C@H]1OC(=O)[C@H](C)C(=O)[C@H](C)[C@@H](O[C@@H]2O[C@H](C)C[C@H](N(C)C)[C@H]2O)[C@](C)(OC)C[C@@H](C)C(=O)[C@H](C)[C@H]2N(CCCCn3cnc(-c4cccnc4)c3)C(=O)O[C@]12C [telithromycin]							cytotoxicity against HS-5 cells (HS-5 cells): relatively low cytotoxicity
O=C(O)CNC(=O)[C@@H](CO)NC(=O)CCC(=O)OC[C@@H](NC(=O)C(Cl)Cl)[C@H](O)c1ccc([N+](=O)[O-])cc1 [Compound 1d]		1.267 h⁻¹	hardly rescues the bacteria	~10%	increase drastically	hardly changes the inhibitory efficacy	
NCCCC[C@@H](NC(=O)[C@@H](CCCCN)NC(=O)CCC(=O)OC[C@@H](NC(=O)C(Cl)Cl)[C@H](O)c1ccc([N+](=O)[O-])cc1)C(=O)O [Compound 2b]		0.317 h⁻¹	hardly rescues the bacteria	about 20%	increase drastically	hardly changes the inhibitory efficacy	

Now from value to compound, other results behind:

MIC (E. coli (K-12))	SMILES	apparent first-order rate constant of hydrolysis [2]	effect of deletion of ydgR, fepA or ompF on bacterial viability under treatment [3]	reduction of antibacterial activity by deletion of a cytoplasmic esterase [4]	intensity of static light scattering signal after addition of PLE [5]	change of inhibitory efficacy on addition of exogenous PLE (E. coli)	also measured
>200 µM	COC(=O)CCC(=O)OC[C@@H](NC(=O)C(Cl)Cl)[C@H](O)c1ccc([N+](=O)[O-])cc1 [Compound 4b]						water solubility (Water solubility): water-insoluble
> 200 µM	C[C@@H](NC(=O)CCC(=O)OC[C@@H](NC(=O)C(Cl)Cl)[C@H](O)c1ccc([N+](=O)[O-])cc1)C(=O)O [Compound 4a]						
> 200 µM	O=C(O)CC[C@@H](NC(=O)[C@@H](CCC(=O)O)NC(=O)CCC(=O)OC[C@@H](NC(=O)C(Cl)Cl)[C@H](O)c1ccc([N+](=O)[O-])cc1)C(=O)O [Compound 2g]						
> 200 µM	O=C(O)C[C@@H](NC(=O)[C@@H](CC(=O)O)NC(=O)CCC(=O)OC[C@@H](NC(=O)C(Cl)Cl)[C@H](O)c1ccc([N+](=O)[O-])cc1)C(=O)O [Compound 2h]						
